Our source for the IC50 and inhibition values is patent publication US20260008760A1, “DIPEPTIDYL PEPTIDASE 1 INHIBITORS AND USES THEREOF” (Insmed Incorporated, priority 2024, published 2026).

The target in one assay is T1, active mouse DPP1 enzyme (Mus musculus, UniProt P97821).
T1 construct: Each subunit is composed of an N-terminal fragment, a heavy chain and a light chain; purchased R&D Systems
Nature of the assay: Mouse DPP1 Enzyme IC50 Assay. The note with it: active mouse DPP1 enzyme, H-Gly-Arg-AMC substrate, 10 minutes pre-incubation at 37° C., pH 5.5; average of n runs; read-out: Avg. IC50 (Mouse DPP1 enzyme IC50 value ranges). In kind it is biochemical. The protocol:
Example 96: Mouse DPP1 Enzyme IC50 Assay
Test articles were applied to active mouse DPP1 enzyme (R&D Systems; Minneapolis, MN) in Assay Buffer (50 mM MES pH 5.5, 50 mM NaCl, 5 mM DTT) in a total reaction volume of 125 μL. 25 μL of compound in Assay Buffer plus […] was first added to 50 μL of active mouse DPP1 enzyme at a concentration of 62.5 pg/μL and allowed to pre-incubate for 10 minutes at 37° C. after which 50 μL of […] H-Gly-Arg-AMC substrate (Bachem; St. Torrance, CA) was added, giving final substrate concentration of 400 µM and a final DMSO concentration of […]. Substrate cleavage was measured for 90 minutes at 37° C., with fluorescence at Excitation/Emission 350/450 nm measured every 5 minutes. DPP1 concentration was interpolated based on its activity relative to a standard curve of recombinant active mouse DPP enzyme. IC50 values for each compound were calculated via the XLFit (IDBS Version 5.3.1.3) Add-On to Microsoft Excel using the four parameter fit equation y=(A+((B−A)/(1+((C/x)^D)))), which appears as equation number 205 (4 Parameter Logistic Model or Sigmoidal Dose-Response Model) in XLFit. Default constraints were used for each Parameter. IC50 was defined as the compound concentration at which 50% of enzyme activity was inhibited when compared to the no-compound control.
In Table 2, *** represent average IC50≤5 nM, ** represents average IC50 in the range of 5-20 nM, and * represents average IC50 in the range of ≥20 nM, where the designations were made solely based on the average value without taking into account of the standard deviations.

Assay [1] concerns the target T2, DPP1 in HL-60 cells (Homo sapiens, UniProt P53634). Nature of the assay: DPP1 Cell IC50 assay. In kind it is cell-based. Also on record: host or cells: HL-60 cells. Particulars: 60 min pre-incubation, H-Gly-Phe-AFC substrate, average of n runs, read-out: Avg. IC50 (DPP1 Cell IC50 value ranges). Summed up: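 Intracellular DPP1 activity read as AFC fluorescence (Ex/Em 400/505 nm) after 30 min with H-Gly-Phe-AFC (500 μM stock), following 60 min compound pre-incubation at 37° C with HL-60 cells at 5×10^5 live cells per mL in PBS. IC50 by 4-parameter fit against DMSO-only controls.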

Assay [2] addresses T3, human DPP1 enzyme (Homo sapiens, UniProt P53634). Nature of the assay: Human DPP1 Enzyme IC50 Assay. In kind it is biochemical. Also on record: was first proteolytically processed into its mature form using recombinant human cathepsin L; purchased R&D Systems. The note with it: activated recombinant human DPP1, 400 μM H-Gly-Arg-AMC, 10 minutes pre-incubation at 37° C., pH 6.0; average of n runs; read-out: Avg. IC50 (Human DPP1 enzyme IC50 value ranges). The essentials: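 IC50 came from a four-parameter fit of activity relative to no-compound control, with fluorescence (Ex 350/Em 450 nm) read every 5 min for 90 min at 37 °C using 400 μM final H-Gly-Arg-AMC. Cathepsin L-matured human recombinant DPP1 was preincubated 10 min with compound at pH 6.0 (MES, DTT, 1% DMSO).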
Target sequence in this assay (P53634 25-134 limits assumed): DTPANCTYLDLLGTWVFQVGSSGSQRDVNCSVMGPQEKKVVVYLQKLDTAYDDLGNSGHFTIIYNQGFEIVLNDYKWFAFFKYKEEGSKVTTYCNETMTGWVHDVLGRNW
Target sequence in this assay (P53634 231-394 limits assumed): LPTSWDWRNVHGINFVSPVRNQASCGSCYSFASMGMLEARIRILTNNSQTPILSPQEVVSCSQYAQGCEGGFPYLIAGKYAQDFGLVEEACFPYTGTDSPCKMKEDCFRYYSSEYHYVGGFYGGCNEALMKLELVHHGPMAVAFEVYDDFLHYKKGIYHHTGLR
Target sequence in this assay (P53634 395-463 limits assumed): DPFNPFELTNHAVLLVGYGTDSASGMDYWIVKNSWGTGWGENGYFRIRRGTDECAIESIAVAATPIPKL

For assay [3], the target named is T2, DPP1 in HL-60 cells. Nature of the assay: DPP1 Cell Single-Point Percent Inhibition Testing. In kind it is cell-based. The note with it: final compound concentration 5 nM, n = 1. Also on record: host or cells: HL-60 cells. Summed up:
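HL-60 cells in unsupplemented RPMI preincubated 60 min at 37 °C with test article (5 nM final, 0.1% DMSO), then given cell-permeable H-Gly-Phe-AFC (100 μM final) for 30 min. Fluorescence at 400/505 nm; percent inhibition versus vehicle after subtracting cell-free background and 10 μM brensocatib non-specific signal.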

Assay [4] addresses T3, human DPP1 enzyme. Nature of the assay: Human DPP1 Enzyme Single-Point Percent Inhibition Testing (HL-60 lysate). In kind it is biochemical. Also on record: A crude lysate of HL-60 cells (ATCC; Manassas, VA) was used as a source of human DPP1 enzyme; host or cells: HL-60 cells (crude lysate). Particulars: final compound concentration of 10 nM, 400 μM H-Gly-Arg-AMC, n = 1. Summed up: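 Enzyme source was HL-60 cell lysate in MES pH 6.0 buffer with NaCl and DTT, pre-incubated 10 min at 37° C with 10 nM compound (final, 1% DMSO). Cleavage of 400 μM H-Gly-Arg-AMC was followed at 350/450 nm over 90 min at 37° C, and percent inhibition was taken against vehicle wells.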
Target sequence in this assay (P53634 25-463): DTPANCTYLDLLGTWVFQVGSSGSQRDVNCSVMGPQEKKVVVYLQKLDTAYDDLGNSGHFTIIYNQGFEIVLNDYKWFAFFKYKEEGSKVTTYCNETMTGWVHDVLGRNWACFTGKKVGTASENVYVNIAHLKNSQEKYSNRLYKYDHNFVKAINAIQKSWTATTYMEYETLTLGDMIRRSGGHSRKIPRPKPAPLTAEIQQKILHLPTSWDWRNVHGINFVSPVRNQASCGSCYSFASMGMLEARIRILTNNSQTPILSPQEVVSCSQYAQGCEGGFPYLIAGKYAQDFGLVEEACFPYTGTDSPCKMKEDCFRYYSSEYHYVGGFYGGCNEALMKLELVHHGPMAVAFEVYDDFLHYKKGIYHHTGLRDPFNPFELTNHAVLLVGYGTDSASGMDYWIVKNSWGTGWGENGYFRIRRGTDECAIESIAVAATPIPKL

Values joined by “and” are separate entries in the source; they are usually repeats but may differ in a detail not shown here. Equal values may be shown once. Some results are limits rather than exact numbers.

T2 sequence (P53634 25-463): as above
T1 sequence (P97821 25-134 limits assumed): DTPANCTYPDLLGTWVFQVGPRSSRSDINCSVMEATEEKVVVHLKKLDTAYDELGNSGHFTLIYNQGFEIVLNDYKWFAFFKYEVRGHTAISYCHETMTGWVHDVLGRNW
T1 sequence (P97821 231-393 limits assumed): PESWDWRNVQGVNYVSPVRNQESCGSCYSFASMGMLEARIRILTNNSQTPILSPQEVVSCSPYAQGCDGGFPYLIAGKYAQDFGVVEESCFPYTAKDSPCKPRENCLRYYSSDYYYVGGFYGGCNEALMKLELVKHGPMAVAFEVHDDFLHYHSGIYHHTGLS
T1 sequence (P97821 394-462 limits assumed): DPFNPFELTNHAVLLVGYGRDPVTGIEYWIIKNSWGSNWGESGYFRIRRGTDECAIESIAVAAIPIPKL

On to `N#CC(Cc1cc2c(cc1F)-c1ccc(F)cc1CO2)NC(=O)[C@@H]1CNCCCCO1` (mixture of isomers) [Compound B16, (2S)—N-(1-cyano-2-{2,8-difluoro-6H-benzo[c]chromen-3-yl}ethyl)-1,4-oxazocane-2-carboxamide], for which the values for the half-inhibitory concentration (IC50) on active mouse DPP1 enzyme, at DPP1 in HL-60 cells [1] and at human DPP1 enzyme [2] were over 20 nM, over 2.5 nM and over 15 nM, respectively.
In the case of `N#Cc1ccc2c(c1)COc1cc(CC(C#N)NC(=O)[C@@H]3CNCCCCO3)c(F)cc1-2` (single isomer, unassigned) [Compound B9], the IC50 at active mouse DPP1 enzyme was 5 to 20 nM; at DPP1 in HL-60 cells [1], 1 to 2.5 nM; at human DPP1 enzyme [2], 5 to 15 nM and > 15 nM.
Consider `N#C[C@H](Cc1ccc(-c2ccc(S(F)(F)(F)(F)F)cc2)cc1)NC(=O)[C@@H]1CNCCCO1` [Compound 6, (S)—N—((S)-1-cyano-2-(4′-(pentafluoro-16-sulfaneyl)-[1,1′-biphenyl]-4-yl)ethyl)-1,4-oxazepane-2-carboxamide], for which the values for the IC50 on active mouse DPP1 enzyme, on DPP1 in HL-60 cells [1] and at human DPP1 enzyme [2] were over 20 nM, over 2.5 nM and over 15 nM, respectively.
Take `N#Cc1ccc(-c2ccc(C[C@@H](C#N)NC(=O)[C@@H]3CNCCCO3)cc2)cc1C(F)(F)F` [Compound 7, (2S)—N-[(1S)-1-cyano-2-[4′-cyano-3′-(trifluoromethyl)-[1,1′-biphenyl]-4-yl]ethyl]-1,4-oxazepane-2-carboxamide]: the IC50 at active mouse DPP1 enzyme is over 20 nM; at DPP1 in HL-60 cells [1] it was over 2.5 nM; on human DPP1 enzyme [2], over 15 nM.
The matching figures for `N#Cc1ccc(-c2ccc(C[C@@H](C#N)NC(=O)[C@@H]3CNCCCO3)cc2)cc1C1CC1` [Compound 8, (2S)—N-[(1S)-1-cyano-2-{4′-cyano-3′-cyclopropyl-[1,1′-biphenyl]-4-yl}ethyl]-1,4-oxazepane-2-carboxamide]: over 20 nM, over 2.5 nM and over 15 nM.
Consider `CN1CCN(Cc2ccc(-c3ccc(C[C@@H](C#N)NC(=O)[C@@H]4CNCCCO4)cc3)cc2)CC1` [Compound 9, (2S)—N-[(1S)-1-cyano-2-{4′-[(4-methylpiperazin-1-yl)methyl]-[1,1′-biphenyl]-4-yl}ethyl]-1,4-oxazepane-2-carboxamide], for which the half-inhibitory concentration (IC50) at active mouse DPP1 enzyme was over 20 nM; on DPP1 in HL-60 cells [1], over 2.5 nM; at human DPP1 enzyme [2] it was over 15 nM.
Take `CCN1C(=O)Cc2ccc(-c3ccc(C[C@@H](C#N)NC(=O)[C@@H]4CNCCCO4)cc3)cc21` [Compound 32, (2S)—N-[(1S)-1-cyano-2-[4-(1-ethyl-2-oxo-3H-indol-6-yl)phenyl]ethyl]-1,4-oxazepane-2-carboxamide]: the IC50 at active mouse DPP1 enzyme is over 20 nM.
For `COC1CNC[C@@H](C(=O)N[C@H](C#N)Cc2ccc(-c3ccc4nnn(C)c4c3)cc2)OC1` (stereo partly drawn) [Compound H12], the IC50 on DPP1 in HL-60 cells [1] is > 2.5 nM and 1 to 2.5 nM; at human DPP1 enzyme [2], under 5 nM. The same compound showed an inhibition at 0.005 µM at DPP1 in HL-60 cells [3] of at most 76.5%. On human DPP1 enzyme [4], this compound returned an inhibition at 0.01 µM of at least 66.7%.
Take `C[C@@H]1NC[C@@H](C(=O)N[C@H](C#N)Cc2ccc(-c3ccc4cnn(C)c4c3)cc2F)OC[C@@H]1O` [Compound H31]: the IC50 was 1 to 2.5 nM on DPP1 in HL-60 cells [1]; 5 to 15 nM and > 15 nM at human DPP1 enzyme [2]. This compound registered an inhibition at 0.005 µM at DPP1 in HL-60 cells [3] of at most 76.5%. For the same compound, the inhibition at 0.01 µM against human DPP1 enzyme [4] lay within 40 to 66.7%.
Take `CN1CC[C@]2(C1)C(=O)OCc1ccc(-c3ccc(C[C@@H](C#N)NC(=O)[C@@H]4CNCCCO4)cc3)cc12` [Compound I2]: the IC50 at DPP1 in HL-60 cells [1] was over 2.5 nM; at human DPP1 enzyme [2], 5 to 15 nM. This compound also yielded an inhibition at 0.005 µM at DPP1 in HL-60 cells [3] of at most 76.5%. The inhibition at 0.01 µM on human DPP1 enzyme [4] lay in the range of 40 to 66.7%.
On to `CCCN1CCC2(CC1)SCCc1ccc(-c3ccc(C[C@@H](C#N)NC(=O)[C@@H]4CNCCCO4)cc3)cc12` [Compound I3], for which the IC50 on DPP1 in HL-60 cells [1] is over 2.5 nM; at human DPP1 enzyme [2], 5 to 15 nM. This compound also showed an inhibition at 0.005 µM against DPP1 in HL-60 cells [3] of at most 76.5%. Also, at human DPP1 enzyme [4], the inhibition at 0.01 µM is at least 66.7%.
`CN1CCC(N2CC[C@]3(COCc4ccc(-c5ccc(C[C@@H](C#N)NC(=O)[C@@H]6CNCCCO6)cc5)cc43)C2)CC1` [Compound I8]: the IC50 on DPP1 in HL-60 cells [1] is over 2.5 nM; on human DPP1 enzyme [2], 5 to 15 nM. The compound further displayed an inhibition at 0.005 µM on DPP1 in HL-60 cells [3] of at most 76.5%. At human DPP1 enzyme [4], this compound showed an inhibition at 0.01 µM of at least 66.7%.

Usually IC50 stands for the concentration needed to halve the response being measured. Usually inhibition stands for how much of the control response was suppressed. The low end stands for little suppression, the high end for strong suppression.
